Measurements as given in patent publication US20240199640A1, “NEGATIVE ALLOSTERIC MODULATORS OF METABOTROPIC GLUTAMATE RECEPTOR 2” (priority 2021, published 2024).
Several values for one entry are separate records, joined by “and”; a condition that tells them apart may be missing. Equal values may be shown once.

molecular target: T1, rat mGlu2 (Rattus norvegicus, UniProt P31421); experiment: mGlu GIRK cell-based thallium flux assay, rat mGlu2; conditions: rat mGlu2 GIRK IC50 (nM), HEK-293 cells co-expressing rat mGlu2 and GIRK; EC80 glutamate; Tl flux
T1 construct: expressed in transfected cells; host or cells: HEK-293
T1 sequence (P31421 19-872): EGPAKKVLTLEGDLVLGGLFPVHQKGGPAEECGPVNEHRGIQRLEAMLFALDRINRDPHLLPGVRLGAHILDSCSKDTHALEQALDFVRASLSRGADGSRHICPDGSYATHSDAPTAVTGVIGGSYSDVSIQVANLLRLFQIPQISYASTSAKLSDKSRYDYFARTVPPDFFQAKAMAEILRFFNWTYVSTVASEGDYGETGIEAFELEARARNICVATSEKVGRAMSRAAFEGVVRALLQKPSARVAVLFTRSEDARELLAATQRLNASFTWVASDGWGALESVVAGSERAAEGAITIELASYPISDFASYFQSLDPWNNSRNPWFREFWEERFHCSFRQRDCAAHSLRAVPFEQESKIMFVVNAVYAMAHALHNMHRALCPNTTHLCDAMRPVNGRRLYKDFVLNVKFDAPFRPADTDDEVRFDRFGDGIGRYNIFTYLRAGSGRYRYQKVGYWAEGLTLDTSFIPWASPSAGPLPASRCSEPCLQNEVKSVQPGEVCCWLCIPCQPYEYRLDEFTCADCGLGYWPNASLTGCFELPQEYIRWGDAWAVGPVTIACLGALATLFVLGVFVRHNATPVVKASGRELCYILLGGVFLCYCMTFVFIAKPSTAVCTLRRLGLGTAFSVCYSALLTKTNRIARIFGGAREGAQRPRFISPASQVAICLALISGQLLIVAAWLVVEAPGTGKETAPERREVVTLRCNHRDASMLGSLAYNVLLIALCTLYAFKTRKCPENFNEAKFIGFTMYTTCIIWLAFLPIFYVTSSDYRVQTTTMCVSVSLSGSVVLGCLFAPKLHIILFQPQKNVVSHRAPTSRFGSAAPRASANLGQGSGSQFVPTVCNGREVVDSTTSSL
Description: The day before the assay, GIRK cells co-expressing human mGlu3, human or rat mGlu2, as described above, were plated in black-walled, clear-bottomed, amine-coated 384-well plates at a density of 15,000 cells/20 μL/well in the assay medium (glutamine-depleted basal DMEM supplemented with 10% dialyzed FBS, 20 mM HEPES, 1 mM sodium pyruvate). Cells were incubated at 37° C. in the presence of 5% CO2. […] Cells were washed with assay buffer using a microplate washer to remove the medium, resulting in 20 μL of buffer remaining in each well. Immediately, 20 μL of 2× Thallos dye solution was added to cells, and incubated for one hour at 25° C. During the cell dye loading incubation period, a 10-point concentration serial dilution of compound was created from a 10 mM DMSO compound stock by performing a 1:3 serial dilution in DMSO using the Bravo liquid handler. The 2× compound plate was generated by transferring 0.24 μL of the diluted compound in each well to a daughter plate using an Echo acoustic liquid handler.
After dye-loading, cell plates were washed with assay buffer to remove excess extracellular dye using a microplate washer, resulting in 20 μL of buffer remaining in each well. After a ten-minute equilibration period, cell, compound and agonist plates were loaded into a Hamamatsu μCell kinetic imaging plate reader equipped with liquid handler to monitor fluorescence changes at 480 nm excitation and 540 nm emission settings. Briefly, after collection of baseline fluorescence, 20 μL of compound was added and incubated for two minutes and twenty seconds. This is immediately followed by adding 10 μL of glutamate-thallium buffer to the wells containing compound. The fluorescent signal was monitored an additional 2.5 minutes after the glutamate addition. Multiple reference wells containing no compound received either no glutamate (for a baseline reference), […] glutamate, or ECmax glutamate (for normalization to maximum response). Fluorescence was measured throughout the experiment at a frequency of 1 measurement per every 2 seconds before the glutamate addition and a frequency of 1 measurement per every 1 second after the glutamate addition. Each compound concentration series occurred one time in each plate, and replicates from two or three plates were used in each experimental run. Thallium solutions were handled and disposed of according to guidelines from the Vanderbilt University Chemical Safety department.
Data were normalized using a static ratio function (F/F0) by dividing every fluorescent measurement by the initial fluorescent value for the corresponding well. The increase in signal resulting from the glutamate/thallium addition of the second add was measured by determining the slope from 3 seconds to 13 seconds after the addition. The average of all baseline slopes (no compound, no glutamate) was determined and this value was subtracted from all other slope values. The average of all ECmax slopes was determined and this value was used to normalize the baseline-corrected slopes to a percent max value (% Emax). The % Emax values for each compound series were plotted versus the log of the concentration and fit to a 4-parameter logistical equation with no fixed parameters.
Potency is reported as the IC50 resulting from the curve fit.

SMILES | IC50
Cc1cc(CN2CC(Oc3cc4c(cc3-c3ccc(F)cc3)C(=O)NC4)C2)no1 [Compound 80, 6-(4-fluorophenyl)-5-((1-((5-methylisoxazol-3-yl)methyl)azetidin-3-yl)oxy)isoindolin-1-one] | 1990 nM
Cc1c(S(=O)(=O)N2CC(Oc3cc4c(cc3-c3ccc(F)cc3)C(=O)NC4)C2)cnn1C(F)F [Compound 73, 5-((1-((1-(difluoromethyl)-5-methyl-1H-pyrazol-4-yl)sulfonyl)azetidin-3-yl)oxy)-6-(4-fluorophenyl)isoindolin-1-one] | 8040 nM
Cc1cc(S(=O)(=O)N2CC(Oc3cc4c(cc3-c3ccc(F)cc3)C(=O)NC4)C2)nn1C [Compound 77, 5-((1-((1,5-dimethyl-1H-pyrazol-3-yl)sulfonyl)azetidin-3-yl)oxy)-6-(4-fluorophenyl)isoindolin-1-one] | 2670 nM
Cc1ncc(COc2cc3c(cc2-c2ccc(F)cc2)C(=O)NC3)s1 [Compound 26, 6-(4-fluorophenyl)-5-((2-methylthiazol-5-yl)methoxy)isoindolin-1-one] | 92 nM
CC(Oc1cc2c(cc1-c1ccc(F)nc1)C(=O)NC2)c1ccncc1 (stereo not drawn) [Compound 40, 6-(6-fluoropyridin-3-yl)-5-(1-(pyridin-4-yl)ethoxy)isoindolin-1-one] | > 10000 nM
Cc1nc(CN2CC(Oc3cc4c(cc3-c3ccc(F)cc3)C(=O)NC4)C2)cs1 [Compound 79, 6-(4-fluorophenyl)-5-((1-((2-methylthiazol-4-yl)methyl)azetidin-3-yl)oxy)isoindolin-1-one] | 2540 nM
Cn1cc(-c2cc3c(cc2OCc2ccn(C)n2)CNC3=O)cn1 [Compound 46, 5-((1-methyl-1H-pyrazol-3-yl)methoxy)-6-(1-methyl-1H-pyrazol-4-yl)isoindolin-1-one] | > 10000 nM
Cc1ncc(S(=O)(=O)N2CC(Oc3cc4c(cc3-c3ccc(F)cc3)C(=O)NC4)C2)s1 [Compound 72, 6-(4-fluorophenyl)-5-((1-((2-methylthiazol-5-yl)sulfonyl)azetidin-3-yl)oxy)isoindolin-1-one] | 2140 nM
O=C1NCc2cc(OC3CN(Cc4ccc5ncccc5c4)C3)c(-c3ccc(F)cc3)cc21 [Compound 83, 6-(4-fluorophenyl)-5-((1-(quinolin-6-ylmethyl)azetidin-3-yl)oxy)isoindolin-1-one] | 5000 nM
Cc1c(-c2cc3c(cc2OCc2ccn(C)n2)CNC3=O)cc(C#N)n1C [Compound 49, 1,5-dimethyl-4-(6-((1-methyl-1H-pyrazol-3-yl)methoxy)-3-oxoisoindolin-5-yl)-1H-pyrrole-2-carbonitrile] | > 10000 nM
CC(Oc1cc2c(cc1-c1ccc(N3CCOCC3)cc1)C(=O)NC2)c1ccncc1 (stereo not drawn) [Compound 38, 6-(4-morpholinophenyl)-5-(1-(pyridin-4-yl)ethoxy)isoindolin-1-one] | > 10000 nM
Cn1cc(OCc2cc3c(cc2-c2ccc(F)cc2)C(=O)NC3)cn1 [Compound 63, 6-(4-fluorophenyl)-5-(((1-methyl-1H-pyrazol-4-yl)oxy)methyl)isoindolin-1-one] | 1190 nM and 1570 nM
Cc1csc(C)c1S(=O)(=O)N1CC(Oc2cc3c(cc2-c2ccc(F)cc2)C(=O)NC3)C1 [Compound 76, 5-((1-((2,4-dimethylthiophen-3-yl)sulfonyl)azetidin-3-yl)oxy)-6-(4-fluorophenyl)isoindolin-1-one] | 1000 nM
O=C1NCc2cc(OC3CN(c4ccncc4)C3)c(-c3ccc(F)cc3)cc21 [Compound 33, 6-(4-fluorophenyl)-5-((1-(pyridin-4-yl)azetidin-3-yl)oxy)isoindolin-1-one] | > 10000 nM
Cc1csc(C(C)Oc2cc3c(cc2-c2ccc(F)cc2)C(=O)NC3)n1 (stereo not drawn) [Compound 29, 6-(4-fluorophenyl)-5-(1-(4-methylthiazol-2-yl)ethoxy)isoindolin-1-one] | 1690 nM
